Laboratory results published in patent US20260042731A1, “(2,4-DICHLOROPHENOXY)ACETIC ACID ANALOGS” (CORTEVA AGRISCIENCE LLC, priority 2022, published 2026).
Read-outs that look alike come from different tables or passages of the source.

Assays:
[1] = test system: Abutilon theophrasti (ABUTH), velvetleaf; test: Postemergence herbicide evaluation, growth of Abutilon theophrasti (ABUTH); assay type: in vivo; details: Abutilon theophrasti, post-emergence, percent reduction in plant size relative to untreated control, read-out: AVE. ABUTH; for pest or weed control at 280 g/ha: 280 g ae/ha; for pest or weed control at 560 g/ha: 560 g ae/ha
[2] = test system: Amaranthus rudis (AMATA), tall water hemp; test: Postemergence herbicide evaluation, growth of Amaranthus rudis (AMATA); assay type: in vivo; details: Amaranthus tuberculatus, post-emergence, percent reduction in plant size relative to untreated control, read-out: Ave. AMATA; for pest or weed control at 280 g/ha: 280 g ae/ha; for pest or weed control at 560 g/ha: 560 g ae/ha
[3] = Volatility of compounds measured by thermogravimetric analysis (TGA); assay type: physicochemical
[4] = test system: glyphosate resistant Conyza canadensis (L.) (ERICA), horseweed; test: Postemergence herbicide evaluation, growth of Conyza canadensis (ERICA); assay type: in vivo; details: Erigeron canadensis, post-emergence, percent reduction in plant size relative to untreated control, read-out: Ave. ERICA; for pest or weed control at 280 g/ha: 280 g ae/ha; for pest or weed control at 560 g/ha: 560 g ae/ha
[5] = test system: Ambrosia artemisiifolia (AMBEL), common ragweed; test: Postemergence herbicide evaluation, growth of Ambrosia artemisiifolia (AMBEL); assay type: in vivo; details: Ambrosia artemisiifolia, post-emergence, percent reduction in plant size relative to untreated control, read-out: AVE. AMBEL; for pest or weed control at 280 g/ha: 280 g ae/ha; for pest or weed control at 560 g/ha: 560 g ae/ha
[6] = test system: weeds (ABUTH, AMATA, AMBEL, CHEAL, ERICA); test: Postemergence herbicide evaluation, overall average % weed control across ABUTH, AMATA, AMBEL, CHEAL, ERICA; assay type: in vivo; details: post-emergence, average over the five weeds, read-out: Overall Ave % Weed Control; for pest or weed control at 280 g/ha: 280 g ae/ha; for pest or weed control at 560 g/ha: 560 g ae/ha
[7] = test system: Chenopodium album (CHEAL), common lambsquarters; test: Postemergence herbicide evaluation, growth of Chenopodium album (CHEAL); assay type: in vivo; details: Chenopodium album, post-emergence, percent reduction in plant size relative to untreated control, read-out: Ave. CHEAL; for pest or weed control at 280 g/ha: 280 g ae/ha; for pest or weed control at 560 g/ha: 560 g ae/ha

CN(OC(=O)COc1ccc(Cl)cc1Cl)C(=O)c1ccccc1 [Compound A16, N-(2-(2,4-Dichlorophenoxy)acetoxy)-N-methylbenzamide]
pest or weed control at 280 g/ha ([1]; 168 h, 7 DAA): 85% | pest or weed control at 560 g/ha ([1]; 168 h, 7 DAA): 88% | pest or weed control at 280 g/ha ([1]; 336 h, 14 DAA): 93% | pest or weed control at 560 g/ha ([1]; 336 h, 14 DAA): 96% | pest or weed control at 280 g/ha ([1]; 504 h, 21 DAA): 94% | pest or weed control at 560 g/ha ([1]; 504 h, 21 DAA): 99% | pest or weed control at 280 g/ha ([2]; 168 h, 7 DAA): 65% | pest or weed control at 560 g/ha ([2]; 168 h, 7 DAA): 83% | pest or weed control at 280 g/ha ([2]; 336 h, 14 DAA): 73% | pest or weed control at 560 g/ha ([2]; 336 h, 14 DAA): 83% | pest or weed control at 280 g/ha ([2]; 504 h, 21 DAA): 65% | pest or weed control at 560 g/ha ([2]; 504 h, 21 DAA): 87% | TGA Data (rate of weight loss, volatility) [3]: 4.3 µg/min | pest or weed control at 280 g/ha ([4]; 168 h, 7 DAA): 68% | pest or weed control at 560 g/ha ([4]; 168 h, 7 DAA): 75% | pest or weed control at 280 g/ha ([4]; 336 h, 14 DAA): 85% | pest or weed control at 560 g/ha ([4]; 336 h, 14 DAA): 92% | pest or weed control at 280 g/ha ([4]; 504 h, 21 DAA): 93% | pest or weed control at 560 g/ha ([4]; 504 h, 21 DAA): 100% | pest or weed control at 280 g/ha ([5]; 168 h, 7 DAA): 70% | pest or weed control at 560 g/ha ([5]; 168 h, 7 DAA): 78% | pest or weed control at 280 g/ha ([5]; 336 h, 14 DAA): 83% | pest or weed control at 560 g/ha ([5]; 336 h, 14 DAA): 97% | pest or weed control at 280 g/ha ([5]; 504 h, 21 DAA): 88% | pest or weed control at 560 g/ha ([5]; 504 h, 21 DAA): 100% | pest or weed control at 280 g/ha ([6]; 168 h, 7 DAA): 70% | pest or weed control at 560 g/ha ([6]; 168 h, 7 DAA): 78% | pest or weed control at 280 g/ha ([6]; 336 h, 14 DAA): 81% | pest or weed control at 560 g/ha ([6]; 336 h, 14 DAA): 89% | pest or weed control at 280 g/ha ([6]; 504 h, 21 DAA): 81% | pest or weed control at 560 g/ha ([6]; 504 h, 21 DAA): 96% | pest or weed control at 280 g/ha ([7]; 168 h, 7 DAA): 63% | pest or weed control at 560 g/ha ([7]; 168 h, 7 DAA): 68% | pest or weed control at 280 g/ha ([7]; 336 h, 14 DAA): 70% | pest or weed control at 560 g/ha ([7]; 336 h, 14 DAA): 80% | pest or weed control at 280 g/ha ([7]; 504 h, 21 DAA): 68% | pest or weed control at 560 g/ha ([7]; 504 h, 21 DAA): 95%

O=C(COc1ccc(Cl)cc1Cl)O/N=C/c1ccc(/C=N/OC(=O)COc2ccc(Cl)cc2Cl)cc1 [Compound B3, (1,1′)-4-(-((2-(2,4-Dichlorophenoxy)acetoxy)imino)methyl)benzaldehyde-O-(2-(2,4-dichlorophenoxy)acetyl) oxime]
pest or weed control at 280 g/ha ([1]; 168 h, 7 DAA): 33% | pest or weed control at 560 g/ha ([1]; 168 h, 7 DAA): 60% | pest or weed control at 280 g/ha ([1]; 336 h, 14 DAA): 13% | pest or weed control at 560 g/ha ([1]; 336 h, 14 DAA): 58% | pest or weed control at 280 g/ha ([1]; 504 h, 21 DAA): 12% | pest or weed control at 560 g/ha ([1]; 504 h, 21 DAA): 58% | pest or weed control at 280 g/ha ([2]; 168 h, 7 DAA): 60% | pest or weed control at 560 g/ha ([2]; 168 h, 7 DAA): 70% | pest or weed control at 280 g/ha ([2]; 336 h, 14 DAA): 58% | pest or weed control at 560 g/ha ([2]; 336 h, 14 DAA): 68% | pest or weed control at 280 g/ha ([2]; 504 h, 21 DAA): 58% | pest or weed control at 560 g/ha ([2]; 504 h, 21 DAA): 68% | TGA Data (rate of weight loss, volatility) [3]: 0.8 µg/min | pest or weed control at 280 g/ha ([4]; 168 h, 7 DAA): 55% | pest or weed control at 560 g/ha ([4]; 168 h, 7 DAA): 65% | pest or weed control at 280 g/ha ([4]; 336 h, 14 DAA): 78% | pest or weed control at 560 g/ha ([4]; 336 h, 14 DAA): 80% | pest or weed control at 280 g/ha ([4]; 504 h, 21 DAA): 85% | pest or weed control at 560 g/ha ([4]; 504 h, 21 DAA): 80% | pest or weed control at 280 g/ha ([5]; 168 h, 7 DAA): 23% | pest or weed control at 560 g/ha ([5]; 168 h, 7 DAA): 48% | pest or weed control at 280 g/ha ([5]; 336 h, 14 DAA): 45% | pest or weed control at 560 g/ha ([5]; 336 h, 14 DAA): 50% | pest or weed control at 280 g/ha ([5]; 504 h, 21 DAA): 45% | pest or weed control at 560 g/ha ([5]; 504 h, 21 DAA): 53% | pest or weed control at 280 g/ha ([6]; 168 h, 7 DAA): 47% | pest or weed control at 560 g/ha ([6]; 168 h, 7 DAA): 62% | pest or weed control at 280 g/ha ([6]; 336 h, 14 DAA): 52% | pest or weed control at 560 g/ha ([6]; 336 h, 14 DAA): 65% | pest or weed control at 280 g/ha ([6]; 504 h, 21 DAA): 53% | pest or weed control at 560 g/ha ([6]; 504 h, 21 DAA): 66% | pest or weed control at 280 g/ha ([7]; 168 h, 7 DAA): 65% | pest or weed control at 560 g/ha ([7]; 168 h, 7 DAA): 68% | pest or weed control at 280 g/ha ([7]; 336 h, 14 DAA): 68% | pest or weed control at 560 g/ha ([7]; 336 h, 14 DAA): 70% | pest or weed control at 280 g/ha ([7]; 504 h, 21 DAA): 68% | pest or weed control at 560 g/ha ([7]; 504 h, 21 DAA): 70%
